From PMC6120666 (The EMBO Journal, 2018)

System: THP1Blue cells, NOD2
Assay: THP1Blue NF-κB-SEAP reporter assay, MDP (NOD2)
Type: cell-based
Details: Homo sapiens; MDP 10 μg/ml; read-out: THP1-Blue NF-κB Inhibition IC50 (MDP)
Description: For HEKBlue assay, cells were seeded into clear 96‐well plates at 7.5 × 10^3 cells/well and allowed to attach for 48 h. On the day of the experiment, media was changed to 100 μl of HEKBlue detection media (InvivoGen). Inhibitors were diluted and added in 0.5 μl DMSO 15 min prior to the addition of 1 ng/ml L18‐MDP (InvivoGen). After 8–9 h, absorbance at 620 nm was measured using Victor3V plate reader (Perkin Elmer, Waltham, MA). Values of media‐only wells were subtracted and %inhibition for each compound concentration relative to the DMSO/L18‐MDP‐treated controls was calculated. […] After induction, 20 μl of media was mixed with 180 μl of QUANTI‐Blue reagent (InvivoGen) and incubated at 37°C for 3–4 h, followed by absorbance measurement at 620 nm. IC50 values were calculated as described for HEKBlue assay. […]
For HEKBlue assay, cells were seeded into clear 96 well plates at 7.5x10^3 cells/well and allowed to attach for 48 h. […] After 8-9 h, absorbance at 620 nm was measured using Victor3V plate reader (Perkin Elmer, Waltham, MA). Values of media-only wells were subtracted and %inhibition for each compound concentration relative to the DMSO/L18-MDP-treated controls were calculated.
Inhibition values + StDev were fitted by non-linear regression using Prism software (GraphPad Software, La Jolla, CA) to calculate IC50 values. […] IC50 values were calculated as described for HEKBlue assay. […]

SMILES	IC50 [nM]
CCCS(=O)(=O)Nc1cc(-c2cc(-c3ccc(N4CCNCC4)cc3)cnc2N)cc(F)c1OC [CSLP37]	22.5 ± 2.1
CCCS(=O)(=O)Nc1cc(-c2cc(-c3ccc(N4CCNCC4)cc3)cnc2N)cc(OC)c1OC [CSLP43]	1.34 ± 0.08
